What was measured:
Assay type in all cases: physicochemical
[1] = Water content of the solvents, Karl Fischer titration (ASTM E1064)
Protocol: (§1) The following properties of the solvents were tested: • Kinematic viscosity at 25° C. […] The funnel containing the mixture was inverted several times. The water and solvent phases were allowed to separate for 24 hours, resulting in two distinct phases. For water solubility in solvent, the solvent layer was transferred to a sample vial and was tested for water content according to ASTM E1064. For solvent solubility in water, the water layer was transferred to a sample vial and was tested by a gas chromatography test method for solvent content. Water content, water solubility, and solvent solubility in water were not tested for solvents C2-C5.

[2] = Kinematic viscosity at 25° C. (ASTM D7042)
Protocol: as §1

[3] = Solvency test, active ingredient bromoxynil octanoate; conditions: wt % active ingredient in solution; highest concentration with no crystals at room temperature
Protocol: (§2) Solvency of solvents E1-E5 and C1-C8 was tested by dissolving various solid active ingredients in each solvent. The following pesticides were tested as active ingredients: trifluralin, fluroxypyr, bromoxynil octanoate, and 2-methyl-4-chlorophenoxyacetic acid (MCPA). Solvency was characterized by the weight ratio of an active ingredient in a solvent and was determined by adding 0.5 gram of active ingredient to a vial equipped with a stir bar and then charging the solvent to achieve a desired concentration. The vials were capped and placed into a water bath kept at a temperature 5 to 10° C. below the melting point of tested pesticide. The mixture was stirred in the vial for 24 hours. If the active ingredient was fully dissolved, the mixture was transferred to a room temperature water bath. If no active ingredient crystals were formed, a higher concentration of active ingredient was tested. Conversely, if active ingredient crystals were formed, a lower concentration of active ingredient was tested. Solubility was recorded as the highest concentration of active ingredient in the tested solvent with no formation of crystals. Concentrations were tested at a 5% interval. For example, if the active ingredient was dissolved at 50%, 55% would be the next concentration to be tested. Concentrations below 15 wt % were not tested.

[4] = Solvency test, active ingredient fluroxypyr; conditions: wt % active ingredient in solution; highest concentration with no crystals at room temperature
Protocol: as §2

[5] = Solvent solubility in water; conditions: 20 g solvent mixed with 20 g water, phases separated 24 hours, water layer tested by gas chromatography
Protocol: as §1

[6] = Solvency test, active ingredient trifluralin; conditions: wt % active ingredient in solution; highest concentration with no crystals at room temperature
Protocol: as §2

[7] = Pour point (ASTM D5950)
Protocol: as §1

[8] = Hydrolytic stability in pH 4.5 or pH 8.5 buffer; conditions: 54° C., 14 days, 13C NMR; for Hydrolysis at pH 4.5: pH 4.5 buffer; for Hydrolysis at pH 8.5: pH 8.5 buffer
Protocol: Hydrolytic stability was characterized by mixing the tested solvent with an excess of pH 4.5 or pH 8.5 buffer in a vial which was placed in a heated water bath (54° C.). After 14 days, the vial was cooled to room temperature and the content was allowed to separate into aqueous and organic (solvent) phases. The solvent phase was transferred to a clean vial and sodium sulfate was added to remove residual water. The mixture was filtered to obtain the solvent filtrate which was analyzed by ^13C NMR to measure the amount of hydrolysis products (acid or alcohol), if any.
Hydrolytic stability for solvents E3, C1, C2, and C6-C8 was not tested. No hydrolysis is expected for aromatic solvent C2 due to lack of hydrolysable bonds.

[9] = Water solubility in solvent; conditions: 20 g solvent mixed with 20 g water, phases separated 24 hours, solvent layer tested
Protocol: as §1

[10] = Density at 25° C. (ASTM D4052)
[11] = Solvency test, active ingredient MCPA; conditions: wt % active ingredient in solution; concentrations below 15 wt % not tested
Protocol: as §2

Structure (SMILES)	Water content [1] [ppm w/w]	KV25 [2] [cSt]	Solvency, Bromoxynil Octanoate [3] [wt %]	Solvency, Fluroxypyr [4] [wt %]	Solvent solubility in water [5] [wt %]	Solvency, Trifluralin [6] [wt %]	Pour Point [7] [°C]	Hydrolysis at pH 4.5 [8] [%]	Hydrolysis at pH 8.5 [8] [%]	Water solubility in solvent [9] [vol %]	Density at 25° C. [10] [g/mL]	Solvency, MCPA [11] [wt %]
CN(C)C(=O)CCCCCC(C)(C)C [Solvent E5, N,N-dimethyl neodecanamide]	589	7.29	63.5	63.0	0.141	65.0	−72	<1.0	<1.0	2.457	0.883	–
CC(C)(C)C(=O)OCc1ccccc1 [Solvent E4, Benzyl pivalate]	232	3.40	68.8	66.0	0.010	69.5	−90	0.3	<1.0	0.422	0.966	<15
CC(C)CCCCCCCOC(=O)c1ccccc1 [Solvent C6, isodecyl benzoate]	332	9.60	62.1	–	<0.001	54.5	−69	–	–	0.173	0.949	<15
CC(=O)OCCCCCC(C)C [Solvent C7, isooctyl acetate]	699	1.69	70.9	60.2	0.005	77.3	−105	12.6	<1.0	0.448	0.868	<15
CC(=O)OCCCCCCC(C)C [Solvent C8, isononyl acetate]	722	2.15	67.5	<15	<0.001	72.9	−102	–	–	0.369	0.867	<15
O=C(OC1CCCCC1)c1ccccc1 [Solvent E2, Cyclohexyl benzoate]	102	11.96	68.3	64.8	0.007	66.8	−54	2.7	1.7	0.394	1.042	<15
CCCCOC(=O)c1ccccc1 [Solvent C3, Butyl benzoate, reference compound]	–	3.11	69.7	–	–	62.8	−36	0.5	6.7	–	1.001	<15
CCCCCCCCCC(=O)N(C)C [Solvent C5, linear N,N-dimethyldecanamide, reference compound]	–	5.33	60.2	62.2	–	62.4	−6	<1.0	<1.0	–	0.876	<15
CCC(C)OC(=O)c1ccccc1 (centres unmarked) [Solvent E1, Secondary butyl benzoate]	499	3.38	73.0	61.3	0.008	72.6	−81	<1.0	3.7	0.386	0.992	<15
CCC(C)OC(=O)c1ccc(C(=O)OC(C)CC)o1 (centres unmarked) [Solvent C1, Di-sec butyl furan-2,5-dicarboxylate, reference compound]	269	66.27	48.3	<15	0.003	37.1	–	–	–	0.699	1.047	<15
CC(C)CCCCCOC(=O)c1ccccc1 [Solvent E3, Isooctyl benzoate]	113	6.53	68.6	50.8	<0.001	64.1	–	–	–	0.265	0.962	<15
CC(=O)OCc1ccccc1 [Solvent C4, Benzyl acetate, reference compound]	–	2.20	72.9	59.8	–	61.2	−90	22.5	6.8	–	1.051	15.1

Source: patent US20240268381A1, “Agricultural Chemical Formulation” (ExxonMobil Chemical Patents Inc., priority 2021, published 2024)
